According to PMC4763988, “Activating peptides for cellular uptake via polymerization into high density brushes” (Chemical Science, 2015):
NorAha = not defined here

Tests used:
[1] = tested on: HeLa cells; assay: Propidium iodide cell staining assay for necrotic cells; assay type: cell-based; conditions: flow cytometry PI channel; for Propidium iodide staining, shift of cell population (in words): KLA m ~ 10 5 hr, staurosporine 1 µM 24 hrs
Method: Apoptosis and necrosis assays. Apoptotic and necrotic cells were identified using the CFTM488A Annexin V
stains necrotic cells. For these studies, HeLa cells were plated at a density of 420,000 cells per well of a 6-well
plate 18 hrs prior to treatment. KLA, m ~ 10, was dissolved in DPBS to a concentration of 2000 µM, where
concentration is with respect to peptide and no fluorophore is present. Staurosporin, a small molecule that is
known to cause apoptosis, was dissolved at 1000× (desired concentration on cells is 1 µM) in DMSO.
Staurosporin and the vehicle control were added to the wells 24 hrs prior to analysis, and KLA (m ~ 10) and 10%
DMSO control were added 5 hr prior to analysis. After incubation, materials were removed and the cells were
washed 2× with DPBS followed by 3 × 5 minute incubations with heparin (0.5 mg/mL in DPBS), and finally rinsed
and the cells were transferred to Eppendorf tubes. The suspended cells were centrifuged to pellets and then
resuspended in 100 µL Annexin V binding buffer. Then 5 µL of Annexin V was added to each Eppendorf, followed
by 1 µL of PI. The cells were then incubated in a 37 ° C water bath for 15 minutes in the dark. After incubation,
flow cytometry data was acquired monitoring the FITC channel (for Annexin V staining) and the PI channel.

[2] = tested on: cells; conditions: cited from earlier work
[3] = Aggregation in DPBS by dynamic light scattering; assay type: physicochemical; conditions: for diameter by DLS: dissolved in DPBS, 10 x the concentration used in uptake studies, correlates to unimers
Excerpt: (§1) and dried. In preparation for in vitro cell studies, all polymers were washed (3×) with cold ether (to remove the Ru catalyst) and then dissolved in DPBS and dialyzed in dialysis cups with a molecular weight cut-off value of 3500 (Thermo Scientific, cat. # 69552) in an effort to remove any residual monomer or catalyst.
(§2) We also sought to determine whether our block copolymers (i.e., GSGSGRR60-b-OEG20 and derivatives) formed larger aggregate structures in aqueous solution. To this end, we characterized three polymers GSGSGRR m ~ 60, GSGSGKK m ~ 60 and GSGSG m ~ 60 dissolved in DPBS by standard dynamic light scattering (DLS) and […] electron microscopy (TEM) analyses, which we perform routinely in other work to characterize nano-and micron-scale polymer assemblies. […]
quench here with IV. deprotection
(§3) Figure S5. Polymerization scheme for the preparation of GSGSG peptide polymers and analogues. Peptide polymers for this series are prepared via ROMP as block copolymers with an accessory OEG block to ensure aqueous solubility of all GSGSG analogues. Each peptide block is polymerized to m ~ 8, 15, 30, and 60. The OEG block is kept constant at a DP of ~ 20. The living polymer can be terminated with ethyl vinyl ether after completion of the peptide block to gain accurate molecular weights (Mn), dispersity (Mw/Mn) and degree of polymerization (DP). […]

[4] = Aggregation in DPBS by TEM; assay type: physicochemical; conditions: dissolved in DPBS, 10 x the concentration used in uptake studies
Excerpt: as §1, §2, §3

[5] = tested on: HeLa cells
[6] = tested on: HeLa cells; remark: listed apart in the source
[7] = biological target: trypsin (Sus scrofa, UniProt P00761); conditions: 50 µM with respect to peptide, protease 1 µM (Fig. S25 for KLA: 10 µM), 3 hrs in DPBS, heat denatured 65 °C 15 m, RP-HPLC with standard curve
Sequence of trypsin (P00761 9-231): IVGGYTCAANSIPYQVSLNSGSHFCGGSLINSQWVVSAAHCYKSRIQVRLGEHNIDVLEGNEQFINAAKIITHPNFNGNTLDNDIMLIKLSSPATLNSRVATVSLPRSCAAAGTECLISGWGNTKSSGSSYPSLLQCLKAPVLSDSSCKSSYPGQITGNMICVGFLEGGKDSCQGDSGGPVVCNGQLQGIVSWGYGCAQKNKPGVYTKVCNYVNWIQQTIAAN

[8] = tested on: pronase (protease cocktail); conditions: 50 µM with respect to peptide, protease 1 µM (Fig. S25 for KLA: 10 µM), 3 hrs in DPBS, heat denatured 65 °C 15 m, RP-HPLC with standard curve
[9] = tested on: HeLa cells; assay type: cell-based
Method: Figures S10. Influence of the degree of polymerization or “m” on cellular uptake as quantified by flow cytometry. All data are […] with respect to the fluorophore. 20 15 10 Conc.&(μM)& […] 5 […] 0 […] Figures S11. Concentration dependence of cellular uptake as quantified by flow cytometry. All data are referenced to vehicle […] Concentration of all materials is with respect to the fluorophore. SVI. Live-cell confocal microscopy. HeLa cells were plated on glass-bottom 24-well plates at a cell density of 90,000 cells per well 18 hrs prior to treatment with the compound of interest. The medium was removed and then replaced with medium lacking phenol red (Gibco Life Tech., cat# 31053-028) to minimize background fluorescence. […] respect to fluorophore) were added to the wells and the plates were incubated for 30 min at 37 °C. The medium was then removed and the cells were rinsed 2× with DPBS, and then fresh medium (phenol red- free) was added to each well. Live cells were imaged on an Olympus FV1000 confocal microscope with a chamber at 37 ° C under 5% CO2 via a Z-stack analysis (set to 1 μm slices) using identical instrument settings for each image and a 40× or 100x objective. S14 (also on this page, place not known: 31053 -028) […] Normalized Mean Fluorescence […]

[10] = tested on: mitochondrial membrane potential in HeLa cells; assay: JC-1 mitochondrial integrity (membrane potential) assay; assay type: cell-based; conditions: JC-1 assay, relative to vehicle (DPBS)-treated cells

## C[S+](C)[O-] [DMSO]
[1]; 10% DMSO added 5 hr prior to analysis
  Propidium iodide staining, increase in necrotic cells: ~40 fold increase

## CN[C@@H]1C[C@H]2O[C@@](C)([C@@H]1OC)n1c3ccccc3c3c4c(c5c6ccccc6n2c5c31)C(=O)NC4 [Staurosporine]
[1]
  Propidium iodide staining, shift of cell population (in words): no shift

## GSGSG
[2]
  Cell penetration of GSGSG (in words): does not penetrate cells

## GSGSG56-b-OEG28 [GSGSG polymer]
[3]
  diameter by DLS: < 6 nm
[4]
  TEM images compared with buffer (DPBS) alone: indistinguishable

## GSGSGK53-b-OEG20 [GSGSGK Polymer (m ~ 60)]
[3]; DPBS, deprotected polymer
  Aggregation of deprotected polymer in DPBS by dynamic light scattering (in words): did not aggregate in DPBS

## K(Flu)KLAKLAKKLAKLAK-NH2 [KLA peptide]
[5]
  Cellular uptake: fluorescence signal of treated HeLa cells by flow cytometry (in words): indistinguishable from that of the vehicle control
[6]
  Cytotoxicity (in words): no cytotoxicity was detected
[7]
  Proteolytic degradation by trypsin (RP-HPLC before and after, in words): completely degraded into fragments
[8]
  Proteolytic degradation by pronase (RP-HPLC before and after, in words): completely degraded into fragments
[2]; sub-millimolar concentrations
  Cell penetration of KLA (in words): does not penetrate cells at sub-millimolar concentrations

## NorAhaGSGSGKK-NH2 [GSGSGKK polymer]
[3]
  diameter by DLS: < 6 nm
[4]
  TEM images compared with buffer (DPBS) alone: indistinguishable
[9]
  Internalization and localization by live-cell confocal microscopy (in words): diffuse and punctate fluorescence

## NorAhaKLAKLAK-NH2 (NorAha-KLAKLAK-NH2; reading uncertain; also: polymerized by ROMP, about 10 repeats on polymer backbone) [KLAfragment]
[10]
  Mitochondrial integrity of treated cells (in words): unaffected
[9]
  Internalization and localization by live-cell confocal microscopy (in words): mixture of diffuse and punctate fluorescence
[6]
  Cytotoxicity (in words): negligible toxicity

## NorAhaKLAKLAKKLAKLAK-NH2 [KLA polymer (m ∼ 5)]
[6]
  LD50: 12.5 µM

## NorAhaKLAKLAKKLAKLAK-NH2 [KLA polymer (m ∼ 10)]
[1]
  Propidium iodide staining, shift of cell population (in words): no shift
[9]
  Internalization and localization by live-cell confocal microscopy (in words): diffuse and punctate fluorescence
[6]
  LD50: 25 µM

## NorAhaKLAKLAKKLAKLAK-NH2 [KLA polymer (m ∼ 15)]
[6]
  LD50: 30 µM
